Source: patent US11208400B2, “Substituted 6-(1H-pyrazol-1-yl)pyrimidin-4-amine derivatives and uses thereof” (Bayer Aktiengesellschaft, priority 2016, dated 2021)

Each compound was assayed against T1, human Npt2a (Homo sapiens, UniProt Q06495) (assay: Npt2a activity cell based assay, membrane potential dye, CHO T-REx hNpt2a cells). Details: doxycycline-induced, depolarization by sodium phosphate influx, average or median values if tested more than once.
T1 construct: expressed in transfected cells
T1 sequence (Q06495 1-639): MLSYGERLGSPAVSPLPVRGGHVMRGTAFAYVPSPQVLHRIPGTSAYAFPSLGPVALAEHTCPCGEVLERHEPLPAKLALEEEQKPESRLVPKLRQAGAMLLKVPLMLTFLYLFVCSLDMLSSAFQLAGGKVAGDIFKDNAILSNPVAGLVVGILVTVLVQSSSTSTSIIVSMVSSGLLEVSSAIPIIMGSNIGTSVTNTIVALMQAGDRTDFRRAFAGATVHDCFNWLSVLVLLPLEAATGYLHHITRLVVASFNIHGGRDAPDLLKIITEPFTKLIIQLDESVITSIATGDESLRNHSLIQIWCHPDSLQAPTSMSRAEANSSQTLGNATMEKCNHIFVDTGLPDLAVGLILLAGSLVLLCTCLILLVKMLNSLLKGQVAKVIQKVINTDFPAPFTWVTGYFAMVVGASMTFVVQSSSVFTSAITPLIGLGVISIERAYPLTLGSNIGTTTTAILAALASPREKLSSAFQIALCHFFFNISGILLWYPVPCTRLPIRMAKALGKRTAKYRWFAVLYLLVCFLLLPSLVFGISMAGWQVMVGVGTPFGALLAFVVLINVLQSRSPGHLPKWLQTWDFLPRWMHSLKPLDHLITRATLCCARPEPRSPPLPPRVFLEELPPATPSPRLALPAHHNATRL
Procedure, shortened: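 Cells were doxycycline-induced CHO T-REx hNpt2a, dye-loaded and pretreated 5 min at RT with 1 nM–50 μM compound in Na-free pH 7.4 buffer. IC50 was fit to the post/pre-trigger fluorescence ratio.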
With `Cc1nn(-c2cc(Nc3c(C)c(-c4ccc(OC(F)F)cc4)nn3CC3CC3)ncn2)c(C)c1Cl` [Example 398, 6-(4-chloro-3,5-dimethyl-1H-pyrazol-1-yl)-N-{1-(cyclopropylmethyl)-3-[4-(difluoromethoxy)phenyl]-4-methyl-1H-pyrazol-5-yl}pyrimidin-4-amine] the IC50 was 25 nM.
`Cc1nn(-c2cc(Nc3nn(C)c(-c4ccc(F)cc4)c3OC(F)F)ncn2)c(C)c1C(F)(F)F` [Example 469, N-[4-(difluoromethoxy)-5-(4-fluorophenyl)-1-methyl-1H-pyrazol-3-yl]-6-[3,5-dimethyl-4-(trifluoromethyl)-1H-pyrazol-1-yl]pyrimidin-4-amine] was tested, and the IC50 was 5 nM.
Work on `Cc1nn(-c2cc(Nc3c(C)c(-c4ccc(F)cc4)nn3CC3CC3)ncn2)c(C)c1C(C)(C)O` [Example 159, 2-[1-(6-{[1-(cyclopropylmethyl)-3-(4-fluorophenyl)-4-methyl-1H-pyrazol-5-yl]amino}pyrimidin-4-yl)-3,5-dimethyl-1H-pyrazol-4-yl]propan-2-ol] yielded an IC50 of 8 nM.
`CCc1c(Nc2cc(-n3nc(C)c(Cl)c3C(F)F)ncn2)nn(CC(F)F)c1-c1ccc(F)cc1` [Example 172, 6-[4-chloro-5-(difluoromethyl)-3-methyl-1H-pyrazol-1-yl]-N-[1-(2,2-difluoroethyl)-4-ethyl-5-(4-fluorophenyl)-1H-pyrazol-3-yl]pyrimidin-4-amine] gave an IC50 of 57 nM.
Compound `COCCn1nc(-c2ccc(C(F)F)cc2)c(C)c1Nc1cc(-n2nc(C)cc2C(F)F)ncn1` [Example 538, 6-[5-(difluoromethyl)-3-methyl-1H-pyrazol-1-yl]-N-{3-[4-(difluoromethyl)phenyl]-1-(2-methoxyethyl)-4-methyl-1H-pyrazol-5-yl}pyrimidin-4-amine] has an IC50 of 12 nM.
`CCOC(=O)c1c(C)nn(-c2cc(Nc3c(Cl)c(-c4ccc(F)cc4)nn3C)ncn2)c1C` [Example 449, ethyl 1-(6-{[4-chloro-3-(4-fluorophenyl)-1-methyl-1H-pyrazol-5-yl]amino}pyrimidin-4-yl)-3,5-dimethyl-1H-pyrazole-4-carboxylate] showed an IC50 of 8 nM.
Work on `Cc1cc(C(F)F)n(-c2cc(Nc3c(C)c(-c4ccc(C(F)F)nc4)nn3C)ncn2)n1` [Example 481, 6-[5-(difluoromethyl)-3-methyl-1H-pyrazol-1-yl]-N-{3-[6-(difluoromethyl)pyridin-3-yl]-1,4-dimethyl-1H-pyrazol-5-yl}pyrimidin-4-amine] yielded an IC50 of 1400 nM.
Work on `Cc1nn(-c2cc(Nc3c(C)c(-c4ccc(F)cc4)nn3C)ncn2)c(C)c1C(F)(F)F` [Example 382, 6-[3,5-dimethyl-4-(trifluoromethyl)-1H-pyrazol-1-yl]-N-[3-(4-fluorophenyl)-1,4-dimethyl-1H-pyrazol-5-yl]pyrimidin-4-amine] yielded an IC50 of 35 nM.
In the case of `Cc1nn(-c2cc(Nc3c(C)nn(-c4ccc(C#N)cc4)c3C)ncn2)c(C(F)F)c1Cl` [Example 200, 4-[4-({6-[4-chloro-5-(difluoromethyl)-3-methyl-1H-pyrazol-1-yl]pyrimidin-4-yl}amino)-3,5-dimethyl-1H-pyrazol-1-yl]benzonitrile], the IC50 is reported as 8 nM.
`Cc1cc(C)n(-c2cc(Nc3nn(CC(F)F)c(-c4ccc(C#N)cc4)c3C)ncn2)n1` [Example 252, 4-[1-(2,2-difluoroethyl)-3-{[6-(3,5-dimethyl-1H-pyrazol-1-yl)pyrimidin-4-yl]amino}-4-methyl-1H-pyrazol-5-yl]benzonitrile] was tested, and the IC50 was 48 nM.
For `Cc1cc(C)n(-c2cc(Nc3c(C)c(-c4ccc(C5CC5)cc4)nn3C)ncn2)n1` [Example 324, N-[3-(4-cyclopropylphenyl)-1,4-dimethyl-1H-pyrazol-5-yl]-6-(3,5-dimethyl-1H-pyrazol-1-yl)pyrimidin-4-amine], the IC50 was 270 nM.
With `CCOC(=O)c1c(C)nn(-c2cc(Nc3c(C)nn(-c4ccc(F)cc4)c3C)ncn2)c1C` [Example 453, ethyl 1-(6-{[1-(4-fluorophenyl)-3,5-dimethyl-1H-pyrazol-4-yl]amino}pyrimidin-4-yl)-3,5-dimethyl-1H-pyrazole-4-carboxylate] the IC50 was 18 nM.
With `Cc1nn(-c2cc(Nc3c(C)c(-c4ccccc4)nn3C)ncn2)c(C)c1Cl` [Example 86, 6-(4-chloro-3,5-dimethyl-1H-pyrazol-1-yl)-N-(1,4-dimethyl-3-phenyl-1H-pyrazol-5-yl)pyrimidin-4-amine] the IC50 was 50 nM.
With `Cc1cc(C(F)F)n(-c2cc(Nc3c(C)c(-c4ccc(C#N)cc4)nn3C)ncn2)n1` [Example 240, 4-[5-({6-[5-(difluoromethyl)-3-methyl-1H-pyrazol-1-yl]pyrimidin-4-yl}amino)-1,4-dimethyl-1H-pyrazol-3-yl]benzonitrile] the IC50 was 18 nM.
`COc1c(C)nn(-c2cc(Nc3c(C)c(-c4ccc(F)cc4)nn3C)ncn2)c1C` [Example 437, N-[3-(4-fluorophenyl)-1,4-dimethyl-1H-pyrazol-5-yl]-6-(4-methoxy-3,5-dimethyl-1H-pyrazol-1-yl)pyrimidin-4-amine] showed an IC50 of 21 nM.
`CCc1c(Nc2cc(-n3nc4c(c3O)CCCC4)ncn2)nn(C)c1-c1ccc(F)cc1` [Example 29, 2-(6-{[4-ethyl-5-(4-fluorophenyl)-1-methyl-1H-pyrazol-3-yl]amino}pyrimidin-4-yl)-4,5,6,7-tetrahydro-2H-indazol-3-ol] gave an IC50 of 1420 nM.
With `CC(=O)c1c(C)nn(-c2cc(Nc3nn(C)c(-c4ccc(F)cc4)c3C)ncn2)c1C` [Example 113, 1-[1-(6-{[5-(4-fluorophenyl)-1,4-dimethyl-1H-pyrazol-3-yl]amino}pyrimidin-4-yl)-3,5-dimethyl-1H-pyrazol-4-yl]ethanone] the IC50 was 32 nM.
Work on `Cc1nn(-c2cc(Nc3n[nH]c(-c4ccc(F)cc4)c3C)ncn2)c(C)c1Cl` [Example 72, 6-(4-chloro-3,5-dimethyl-1H-pyrazol-1-yl)-N-[5-(4-fluorophenyl)-4-methyl-1H-pyrazol-3-yl]pyrimidin-4-amine] yielded an IC50 of 15.4 nM.
`CCc1c(Nc2cc(-n3nc(C)c(C(=O)N4CC(F)C4)c3C)ncn2)nn(C)c1-c1ccc(F)cc1` [Example 126, [1-(6-{[4-ethyl-5-(4-fluorophenyl)-1-methyl-1H-pyrazol-3-yl]amino}pyrimidin-4-yl)-3,5-dimethyl-1H-pyrazol-4-yl](3-fluoroazetidin-1-yl)methanone] was tested, and the IC50 was 975 nM.
Work on `COC(C)c1c(C)nn(-c2cc(Nc3c(C)c(-c4ccc(F)cc4)nn3CC3CC3)ncn2)c1C` (racemic) [Example 326, (±)-N-[1-(cyclopropylmethyl)-3-(4-fluorophenyl)-4-methyl-1H-pyrazol-5-yl]-6-{4-[1-methoxyethyl]-3,5-dimethyl-1H-pyrazol-1-yl}pyrimidin-4-amine (Racemic)] yielded an IC50 of 4 nM.
In the case of `Cc1cc(C)n(-c2cc(Nc3c(C)c(-c4ccc(C#N)cc4)nn3CCC3CC3)ncn2)n1` [Example 198, 4-[1-(2-cyclopropylethyl)-5-{[6-(3,5-dimethyl-1H-pyrazol-1-yl)pyrimidin-4-yl]amino}-4-methyl-1H-pyrazol-3-yl]benzonitrile], the IC50 is reported as 12 nM.
In the case of `CCc1c(-c2ccc(C#N)cc2)nn(CC2CC2)c1Nc1cc(-n2nc(C)c(Cl)c2C)ncn1` [Example 157, 4-[5-{[6-(4-chloro-3,5-dimethyl-1H-pyrazol-1-yl)pyrimidin-4-yl]amino}-1-(cyclopropylmethyl)-4-ethyl-1H-pyrazol-3-yl]benzonitrile], the IC50 is reported as 6 nM.
`Cc1cc(C)n(-c2cc(Nc3c(Cl)c(-c4ccc(C#N)cc4)nn3CC3CC3)ncn2)n1` [Example 441, 4-[4-chloro-1-(cyclopropylmethyl)-5-{[6-(3,5-dimethyl-1H-pyrazol-1-yl)pyrimidin-4-yl]amino}-1H-pyrazol-3-yl]benzonitrile] was tested, and the IC50 was 21 nM.
Compound `CCc1c(Nc2cc(-n3nc(C)cc3C)ncn2)nn(CC(F)F)c1-c1ccc(F)cc1` [Example 173, N-[1-(2,2-difluoroethyl)-4-ethyl-5-(4-fluorophenyl)-1H-pyrazol-3-yl]-6-(3,5-dimethyl-1H-pyrazol-1-yl)pyrimidin-4-amine] has an IC50 of 16 nM.
`CCc1c(Nc2cc(-n3nc(C)cc3C)ncn2)nn(S(C)(=O)=O)c1-c1ccc(F)cc1` [Example 114, 6-(3,5-dimethyl-1H-pyrazol-1-yl)-N-[4-ethyl-5-(4-fluorophenyl)-1-(methylsulfonyl)-1H-pyrazol-3-yl]pyrimidin-4-amine] gave an IC50 of 290 nM.
With `COc1ccc(-c2nn(CC3CC3)c(Nc3cc(-n4nc(C)cc4C)ncn3)c2C)cc1` [Example 491, N-[1-(cyclopropylmethyl)-3-(4-methoxyphenyl)-4-methyl-1H-pyrazol-5-yl]-6-(3,5-dimethyl-1H-pyrazol-1-yl)pyrimidin-4-amine] the IC50 was 220 nM.
With `Cc1nn(-c2cc(Nc3c(C)c(-c4ccc(C#N)cc4)nn3C)ncn2)c(C)c1Cl` [Example 201, 4-(5-{[6-(4-chloro-3,5-dimethyl-1H-pyrazol-1-yl)pyrimidin-4-yl]amino}-1,4-dimethyl-1H-pyrazol-3-yl)benzonitrile] the IC50 was 6 nM.
`Cc1cc(C(C)(C)O)n(-c2cc(Nc3c(C)c(-c4ccc(C#N)cc4)nn3CC3CC3)ncn2)n1` [Example 263, 4-[1-(cyclopropylmethyl)-5-({6-[5-(2-hydroxypropan-2-yl)-3-methyl-1H-pyrazol-1-yl]pyrimidin-4-yl}amino)-4-methyl-1H-pyrazol-3-yl]benzonitrile] gave an IC50 of 111 nM.
